{"source": "ChEMBL document CHEMBL4732068", "about": "“The discovery of novel antitrypanosomal 4-phenyl-6-(pyridin-3-yl)pyrimidines” (Eur J Med Chem, 2021)", "key": {"[1]": {"biological_target": "Histone deacetylase 3 (Homo sapiens) (UniProt O15379)", "sequence (O15379 whole entry)": "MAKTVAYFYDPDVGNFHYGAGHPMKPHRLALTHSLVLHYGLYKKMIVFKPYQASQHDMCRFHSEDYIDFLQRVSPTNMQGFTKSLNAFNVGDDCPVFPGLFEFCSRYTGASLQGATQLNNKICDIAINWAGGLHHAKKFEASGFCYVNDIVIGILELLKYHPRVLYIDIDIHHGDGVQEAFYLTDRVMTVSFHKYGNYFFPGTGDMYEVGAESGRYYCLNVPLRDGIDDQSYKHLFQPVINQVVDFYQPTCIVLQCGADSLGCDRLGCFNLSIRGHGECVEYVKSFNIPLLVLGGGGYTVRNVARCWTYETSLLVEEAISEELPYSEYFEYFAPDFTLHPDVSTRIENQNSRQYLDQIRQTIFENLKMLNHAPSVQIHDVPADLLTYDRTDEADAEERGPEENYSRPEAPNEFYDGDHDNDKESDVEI", "assay": "Inhibition of recombinant human HDAC3 by fluorescence based microplate reader analysis"}, "[2]": {"biological_target": "Cytochrome P450 2C19 (Homo sapiens, UniProt P33261)", "sequence (P33261 whole entry)": "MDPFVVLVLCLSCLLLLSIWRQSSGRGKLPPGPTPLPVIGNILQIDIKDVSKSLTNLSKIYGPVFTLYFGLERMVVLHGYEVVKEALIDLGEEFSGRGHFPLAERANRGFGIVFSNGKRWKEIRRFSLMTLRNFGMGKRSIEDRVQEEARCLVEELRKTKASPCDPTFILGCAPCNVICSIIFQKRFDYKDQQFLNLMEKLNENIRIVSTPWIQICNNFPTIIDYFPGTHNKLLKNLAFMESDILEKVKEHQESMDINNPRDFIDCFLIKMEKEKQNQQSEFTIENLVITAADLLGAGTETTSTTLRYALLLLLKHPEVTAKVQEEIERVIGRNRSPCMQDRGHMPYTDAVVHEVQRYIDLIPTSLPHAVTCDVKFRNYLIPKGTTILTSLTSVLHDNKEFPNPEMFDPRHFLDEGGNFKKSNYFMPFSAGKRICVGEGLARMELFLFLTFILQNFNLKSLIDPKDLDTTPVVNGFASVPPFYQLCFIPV", "assay": "Inhibition of CYP2C19 in human liver microsomes by luminescence based P450-[…] assay", "type": "ADME"}, "[3]": {"biological_target": "Histone deacetylase 1 (Homo sapiens) (UniProt Q13547)", "sequence (Q13547 whole entry)": "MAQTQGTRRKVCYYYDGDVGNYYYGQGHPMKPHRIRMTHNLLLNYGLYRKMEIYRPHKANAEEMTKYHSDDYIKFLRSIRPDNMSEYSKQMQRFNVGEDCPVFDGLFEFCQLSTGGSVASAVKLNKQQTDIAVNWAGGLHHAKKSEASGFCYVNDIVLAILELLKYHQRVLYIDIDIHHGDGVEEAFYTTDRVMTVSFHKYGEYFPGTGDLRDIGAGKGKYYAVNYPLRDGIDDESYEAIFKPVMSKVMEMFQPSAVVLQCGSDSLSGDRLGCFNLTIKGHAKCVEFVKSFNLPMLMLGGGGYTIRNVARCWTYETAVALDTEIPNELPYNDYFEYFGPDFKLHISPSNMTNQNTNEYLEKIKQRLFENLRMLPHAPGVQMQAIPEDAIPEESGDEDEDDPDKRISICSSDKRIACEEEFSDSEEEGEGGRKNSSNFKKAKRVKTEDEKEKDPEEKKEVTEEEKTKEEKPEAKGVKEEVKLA", "assay": "Inhibition of recombinant human HDAC1 by fluorescence based microplate reader analysis"}, "[4]": {"biological_target": "Cytochrome P450 2C9 (Homo sapiens, UniProt P11712)", "sequence (P11712 whole entry)": "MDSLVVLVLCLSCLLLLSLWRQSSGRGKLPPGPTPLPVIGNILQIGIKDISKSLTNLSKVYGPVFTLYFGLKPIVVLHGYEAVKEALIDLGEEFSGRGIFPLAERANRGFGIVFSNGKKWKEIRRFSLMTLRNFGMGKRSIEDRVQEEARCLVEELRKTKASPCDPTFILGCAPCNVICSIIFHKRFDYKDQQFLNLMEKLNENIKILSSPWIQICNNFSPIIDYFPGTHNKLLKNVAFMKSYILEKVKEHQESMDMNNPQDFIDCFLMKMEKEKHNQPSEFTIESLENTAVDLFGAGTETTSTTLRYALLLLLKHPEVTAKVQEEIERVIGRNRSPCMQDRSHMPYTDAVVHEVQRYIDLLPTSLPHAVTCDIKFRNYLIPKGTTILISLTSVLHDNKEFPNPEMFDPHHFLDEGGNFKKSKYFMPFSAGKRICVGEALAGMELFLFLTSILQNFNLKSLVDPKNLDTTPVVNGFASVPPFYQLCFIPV", "assay": "Inhibition of CYP2C9 in human liver microsomes by luminescence based P450-[…] assay"}, "[5]": {"biological_target": "T1, Protein deacetylase HDAC6 (Homo sapiens) (UniProt Q9UBN7)", "T1 sequence (whole entry)": "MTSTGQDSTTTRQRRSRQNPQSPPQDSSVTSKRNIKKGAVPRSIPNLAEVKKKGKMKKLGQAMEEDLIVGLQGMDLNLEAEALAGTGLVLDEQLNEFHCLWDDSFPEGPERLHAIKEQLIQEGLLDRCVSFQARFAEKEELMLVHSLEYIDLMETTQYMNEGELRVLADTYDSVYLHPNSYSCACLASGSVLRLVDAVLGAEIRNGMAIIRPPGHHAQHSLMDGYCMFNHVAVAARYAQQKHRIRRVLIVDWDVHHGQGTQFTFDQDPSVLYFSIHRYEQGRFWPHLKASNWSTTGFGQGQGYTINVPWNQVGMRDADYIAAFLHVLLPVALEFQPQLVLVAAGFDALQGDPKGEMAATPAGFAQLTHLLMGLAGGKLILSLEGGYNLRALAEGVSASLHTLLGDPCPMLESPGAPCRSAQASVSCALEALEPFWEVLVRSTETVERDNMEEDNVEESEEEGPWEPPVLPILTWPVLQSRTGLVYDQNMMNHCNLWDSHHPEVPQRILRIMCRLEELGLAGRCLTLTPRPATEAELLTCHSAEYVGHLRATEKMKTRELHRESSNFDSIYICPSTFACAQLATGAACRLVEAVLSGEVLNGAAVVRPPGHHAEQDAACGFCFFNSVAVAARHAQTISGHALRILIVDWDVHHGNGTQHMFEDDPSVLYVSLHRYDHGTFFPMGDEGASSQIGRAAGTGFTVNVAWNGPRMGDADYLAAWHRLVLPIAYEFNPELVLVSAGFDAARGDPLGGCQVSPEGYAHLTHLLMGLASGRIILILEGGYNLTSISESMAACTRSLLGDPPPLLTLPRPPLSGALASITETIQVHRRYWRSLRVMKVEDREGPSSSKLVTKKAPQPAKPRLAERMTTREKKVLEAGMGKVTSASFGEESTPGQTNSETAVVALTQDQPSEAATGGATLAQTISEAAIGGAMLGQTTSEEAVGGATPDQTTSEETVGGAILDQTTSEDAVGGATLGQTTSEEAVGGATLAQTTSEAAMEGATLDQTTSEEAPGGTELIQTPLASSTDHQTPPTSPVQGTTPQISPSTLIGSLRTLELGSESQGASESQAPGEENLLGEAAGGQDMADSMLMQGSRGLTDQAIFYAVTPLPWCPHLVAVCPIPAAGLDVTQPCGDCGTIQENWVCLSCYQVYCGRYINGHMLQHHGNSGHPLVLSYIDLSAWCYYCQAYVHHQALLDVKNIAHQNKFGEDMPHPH", "assay": "Inhibition of recombinant human HDAC6 by fluorescence based microplate reader analysis"}, "[6]": {"biological_target": "T2, Cytochrome P450 1A2 (Homo sapiens, UniProt P05177)", "T2 sequence (P05177 whole entry)": "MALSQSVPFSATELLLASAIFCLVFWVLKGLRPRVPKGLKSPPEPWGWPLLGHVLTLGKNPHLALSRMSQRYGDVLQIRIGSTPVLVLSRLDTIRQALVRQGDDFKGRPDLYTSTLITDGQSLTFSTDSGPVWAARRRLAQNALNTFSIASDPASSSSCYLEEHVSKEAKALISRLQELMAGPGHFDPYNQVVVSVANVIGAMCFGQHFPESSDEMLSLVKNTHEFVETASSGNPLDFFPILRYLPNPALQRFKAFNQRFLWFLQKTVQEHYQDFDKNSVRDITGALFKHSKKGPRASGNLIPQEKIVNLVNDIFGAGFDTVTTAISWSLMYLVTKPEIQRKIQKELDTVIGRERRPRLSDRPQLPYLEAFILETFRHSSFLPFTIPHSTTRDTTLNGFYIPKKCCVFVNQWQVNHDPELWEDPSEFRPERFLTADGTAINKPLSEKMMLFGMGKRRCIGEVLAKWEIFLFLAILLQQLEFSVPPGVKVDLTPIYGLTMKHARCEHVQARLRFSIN", "assay": "Inhibition of CYP1A2 in human liver microsomes by luminescence based P450-[…] assay", "type": "ADME"}}, "note": "Calls of active or inactive are those of the source. The rule behind the calls is not given here."}
{"smiles": "COc1ccccc1-c1cc(-c2cccnc2)nc(N)n1", "values": [{"measurement": "inhibition", "setting": "[1]", "result": "inactive"}, {"measurement": "inhibition (INH)", "setting": "[2]", "result": "Active"}, {"measurement": "inhibition", "setting": "[3]", "result": "inactive"}, {"measurement": "inhibition (INH)", "setting": "[4]", "result": "Active"}, {"measurement": "inhibition", "setting": "[5]", "result": "inactive"}, {"measurement": "inhibition (INH)", "setting": "[6]", "result": "Active"}]}
